# Reference: ChEMBL document CHEMBL1201862, “PubChem BioAssay data set” (2004)
#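 Each compound was tested at five concentrations against cells in 96-well plates for 48 hours. Here, GI50 denotes the concentration required for 50% inhibition of growth.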 Calls of active or inactive are those of the source. Rule as the data show it: active = GI50 up to about 1.1 µM and inactive = higher.
# Experiments:
# Assay in all cases: NCI anticancer screen, dose series, 48 h
# [1] = system: BT-549
# [2] = system: DLD-1
# [3] = system: XF498
# [4] = system: KM-20L2
# [5] = system: SNB-78
# [6] = system: DMS-273
# [7] = system: M19-MEL
# [8] = system: HOP-18
# [9] = system: RXF 631
smiles,measurement,setting,value
CN(Cc1cc(C(C)(C)C)cc(Br)c1O)Cc1cc(C(C)(C)C)cc(Br)c1O,GI50,[1],4 µM (inactive)
Cc1cnc2sn(-c3ccc(Oc4ccccc4)cc3)c(=O)c2c1,GI50,[1],23.8 µM (inactive)
CN(C)c1ccccc1CC(c1c[nH]c2ccccc12)c1c[nH]c2ccccc12,GI50,[2],15.7 µM (inactive)
same,GI50,[3],17.3 µM (inactive)
same,GI50,[4],10.7 µM (inactive)
same,GI50,[5],14.4 µM (inactive)
same,GI50,[6],13 µM (inactive)
same,GI50,[7],14.9 µM (inactive)
COc1cc(C2C(Cl)C(=O)N2NC(=O)c2ccc(NC(C)=O)cc2)ccc1O (stereo unspecified),GI50,[2],> 100 µM (inactive)
same,GI50,[3],> 100 µM (inactive)
same,GI50,[4],> 100 µM (inactive)
same,GI50,[5],> 100 µM (inactive)
same,GI50,[6],> 100 µM (inactive)
same,GI50,[7],> 100 µM (inactive)
O=C(NCCCCN(CCCNC(=O)C(F)(F)F)Cc1ccccc1)C(F)(F)F,GI50,[1],> 100 µM (inactive)
COc1ccc(-c2csc(Cc3nc4ccccc4c(=O)n3-c3ccc(Cl)cc3)n2)cc1,GI50,[1],45 µM (inactive)
COc1ccc(OC)c(/C(C)=N/NC(N)=S)c1,GI50,[8],> 100 µM (inactive)
same,GI50,[2],> 100 µM (inactive)
same,GI50,[3],> 100 µM (inactive)
same,GI50,[4],> 100 µM (inactive)
same,GI50,[5],> 100 µM (inactive)
same,GI50,[6],> 100 µM (inactive)
same,GI50,[7],> 100 µM (inactive)
CC(=O)OCC1OC(NC(=S)Nn2c(-c3ccccc3)nc3ccccc3c2=O)C(OC(C)=O)C(OC(C)=O)C1OC(C)=O (stereo unspecified),GI50,[1],> 100 µM (inactive)
N#Cc1ccc(/N=N/N2CCCC2)cc1,GI50,[1],> 100 µM (inactive)
CC1=C(C(=O)Nc2ccccc2)C(c2cccc3ccccc23)C(C(=O)Nc2ccccc2)=C(C)N1,GI50,[8],24 µM (inactive)
same,GI50,[2],28.2 µM (inactive)
same,GI50,[4],19.3 µM (inactive)
same,GI50,[5],28.7 µM (inactive)
same,GI50,[6],19.1 µM (inactive)
same,GI50,[7],19 µM (inactive)
CCOC(=O)NC(C(=O)OCC)(N1CCN(c2cc3c(cc2F)c(=O)c(C(=O)O)cn3CC)CC1)C(F)(F)F (stereo unspecified),GI50,[1],> 100 µM (inactive)
C=C1C(=O)OC2C1CC[C@H](C)C13OC(=O)CC1[C@@]23C (stereo partly specified),GI50,[2],> 100 µM (inactive)
same,GI50,[5],> 100 µM (inactive)
same,GI50,[6],> 100 µM (inactive)
same,GI50,[7],> 100 µM (inactive)
c1ccc(CCCCNCc2cc(CNCCCCc3ccccc3)cc(CNCCCCc3ccccc3)c2)cc1,GI50,[1],1.63 µM (inactive)
Cc1ccc(NC(=O)C(=O)CC(=O)c2ccccc2)cc1C,GI50,[8],> 100 µM (inactive)
same,GI50,[2],> 100 µM (inactive)
same,GI50,[3],> 100 µM (inactive)
same,GI50,[4],> 100 µM (inactive)
same,GI50,[5],> 100 µM (inactive)
same,GI50,[6],56.8 µM (inactive)
same,GI50,[7],> 100 µM (inactive)
c1cc2ccc1C1NCCCN1CCN1CCCNC1c1ccc(cc1)C1NCCCN1CCN1CCCNC21 (stereo unspecified),GI50,[8],> 100 µM (inactive)
same,GI50,[2],> 100 µM (inactive)
same,GI50,[3],> 100 µM (inactive)
same,GI50,[4],> 100 µM (inactive)
same,GI50,[6],> 100 µM (inactive)
same,GI50,[7],95.7 µM (inactive)
CC1=NNC(=O)C1C1CC(c2c[nH]c3ccccc23)=NN(c2ccccc2)C1=O (stereo unspecified),GI50,[1],86.1 µM (inactive)
O=C(COc1ccc(OCC(=O)N2C(=O)CC/C2=N\c2ccc(Cl)cc2)cc1)N1C(=O)CS/C1=N\c1ccc(Cl)cc1,GI50,[1],57.4 µM (inactive)
Cl/C(=C\C=N\c1ccc(I)cc1)c1ccc2ccccc2c1,GI50,[1],16.9 µM (inactive)
COC[C@@H](/N=C/c1ccc(OC)cc1)C(C)C,GI50,[1],> 100 µM (inactive)
C=CCN1C[C@H](C)N([C@@H](c2ccc(C(=O)N3CCCCC3)cc2)c2cccc(OC)c2)C[C@H]1C,GI50,[1],32.9 µM (inactive)
C=C1C(=O)OC2C1C(OC(=O)/C(C)=C/C)CC1(C)C(=O)CCC(=C)C21 (stereo unspecified),GI50,[1],6.27 µM (inactive)
COC(=O)C1=C(C(=O)OC)c2cc(OC)ccc2C(C(=S)N(C)C)S1 (stereo unspecified),GI50,[1],19.2 µM (inactive)
Cc1ccc(S(=O)(=O)NC(=O)NC(Cc2c[nH]c3ccccc23)C(=O)O)cc1 (stereo unspecified),GI50,[1],> 100 µM (inactive)
OCC1OC(n2cnc3c(Cl)nc(Nc4ccc(Cl)c(Cl)c4)nc32)CC1O (stereo unspecified),GI50,[1],9.98 µM (inactive)
N#CCC(=O)N1CCCOCCC1,GI50,[2],> 100 µM (inactive)
same,GI50,[4],> 100 µM (inactive)
same,GI50,[5],> 100 µM (inactive)
same,GI50,[6],> 100 µM (inactive)
same,GI50,[7],> 100 µM (inactive)
same,GI50,[9],> 100 µM (inactive)
COc1ccc(Nc2nc3ccc(C(F)(F)F)cc3nc2C(=O)O)cc1,GI50,[1],2.71 µM (inactive)
COc1ccc2c(C)cc(N/N=C/c3ccc(C)s3)nc2c1,GI50,[1],24.3 µM (inactive)
CCOC(=O)c1cn2c(n1)sc1c(Cl)c(Cl)ccc12,GI50,[1],33 µM (inactive)
COc1cc(S(=O)(=O)N/N=C/c2cc(Br)c(O)c(OC)c2)c(OC)cc1NC(C)=O,GI50,[1],> 100 µM (inactive)
O=C(/C=C/c1cccc(Br)c1)N1CCN(CCOC(c2ccccc2)c2ccccc2)CC1,GI50,[1],26.5 µM (inactive)
CC(C)(C)N1C=[N+](C(C)(C)C)CC1,GI50,[1],> 100 µM (inactive)
CN(C)c1ccc(/C=c2/c3ccccc3n3c2cc(C24CC5CC(CC(C5)C2)C4)[n+]3C)cc1,GI50,[1],0.245 µM (active)
COc1cc(/C=C/c2sc3ccccc3[n+]2C)ccc1N(C)C,GI50,[1],0.368 µM (active)
O=C1C=CC(=O)c2c1ccc1c3ccccc3n(CCCCCCCCn3c4ccccc4c4ccc5c(c43)C(=O)C=CC5=O)c21,GI50,[1],> 100 µM (inactive)
CC(C)c1cc2c(cc1S(=O)(=O)O)[C@@]1(C)CCC[C@@](C)(C(=O)O)C1CC2 (stereo partly specified),GI50,[1],> 100 µM (inactive)
CCC1C(C)c2c([nH]c3ccccc23)C2C(=O)N(c3ccccc3)C(=O)C21 (stereo unspecified),GI50,[2],10.6 µM (inactive)
same,GI50,[3],21.5 µM (inactive)
same,GI50,[5],19.2 µM (inactive)
same,GI50,[6],17.8 µM (inactive)
same,GI50,[7],15.8 µM (inactive)
same,GI50,[9],13.5 µM (inactive)
